Data as given in patent publication US7858634B2, “Amorphous 3-pyridil-1-hydroxyethyliden-1,1-biphosphonic acid monosodium salt and process for the preparation thereof” (Chemi SpA, priority 2004, dated 2010).

Test: comparative dissolution test in deionized water
Conditions: for time to complete dissolution: 200 mg suspended in 25 ml deionized water, 20° C., magnetic stirring at 25 rpm, monosodium salt

Row | SMILES | time to complete dissolution | water solubility with respect to crystalline forms (amorphous form, preferably lyophilized, vs commercially available or otherwise described crystalline forms)
1 | O=P([O-])(O)C(O)(Cc1cccnc1)P(=O)(O)O.[Na+] [sodium risedronate hemipentahydrate, 3-pyridil-1-hydroxyethyliden-1,1-biphosphonic acid monosodium salt] | > 30 ′ | 
2 | O=P([O-])(O)C(O)(Cc1cccnc1)P(=O)(O)O.[Na+] [amorphous sodium risedronate, 3-pyridil-1-hydroxyethyliden-1,1-biphosphonic acid monosodium salt] | ≤ 2 ′ | improved water solubility
